The numbers were not newly measured in patent US10357535B2, “Daptomycin formulations and uses thereof” (priority 2012, dated 2019), which cites them from elsewhere.

The structures appear in SMILES notation.

Data set [1] relates to MSSA. Conditions: in less than one hour.
In data set [2] the test system is MRSA. Conditions: in less than one hour.

On to `CCCCCCCCCC(=O)NC(Cc1c[nH]c2ccccc12)C(=O)NC(CC(N)=O)C(=O)NC(CC(=O)O)C(=O)NC1C(=O)NCC(=O)NC(CCCN)C(=O)NC(CC(=O)O)C(=O)NC(C)C(=O)NC(CC(=O)O)C(=O)NCC(=O)NC(CO)C(=O)NC(C(C)CC(=O)O)C(=O)NC(CC(=O)c2ccccc2N)C(=O)OC1C` (centres unmarked) [daptomycin, Daptomycin], for which the bacteria dead result in data set [1] and in data set [2] was “greater than 99.9%” throughout.
